Our source for the Kd values is PubChem BioAssay AID1033 (Sanford-Burnham Center for Chemical Genomics, 2008).

The assay has as its target Chaperone protein DnaK (Escherichia coli (strain K12)) (UniProt P0A6Y8). Description: E. coli DnaK SBD ligand binding – biophysical, NMR, chaperone (AID 1033). The conditions noted are these: Purified DnaK SBD.

SMILES strings stand for the structures. The source made the active and inactive calls. No rule for the calls is given here. Where only a bound is given, the exact number is not on record here.

Chain of Chaperone protein DnaK (Escherichia coli (strain K12)) (P0A6Y8 whole entry, looked up): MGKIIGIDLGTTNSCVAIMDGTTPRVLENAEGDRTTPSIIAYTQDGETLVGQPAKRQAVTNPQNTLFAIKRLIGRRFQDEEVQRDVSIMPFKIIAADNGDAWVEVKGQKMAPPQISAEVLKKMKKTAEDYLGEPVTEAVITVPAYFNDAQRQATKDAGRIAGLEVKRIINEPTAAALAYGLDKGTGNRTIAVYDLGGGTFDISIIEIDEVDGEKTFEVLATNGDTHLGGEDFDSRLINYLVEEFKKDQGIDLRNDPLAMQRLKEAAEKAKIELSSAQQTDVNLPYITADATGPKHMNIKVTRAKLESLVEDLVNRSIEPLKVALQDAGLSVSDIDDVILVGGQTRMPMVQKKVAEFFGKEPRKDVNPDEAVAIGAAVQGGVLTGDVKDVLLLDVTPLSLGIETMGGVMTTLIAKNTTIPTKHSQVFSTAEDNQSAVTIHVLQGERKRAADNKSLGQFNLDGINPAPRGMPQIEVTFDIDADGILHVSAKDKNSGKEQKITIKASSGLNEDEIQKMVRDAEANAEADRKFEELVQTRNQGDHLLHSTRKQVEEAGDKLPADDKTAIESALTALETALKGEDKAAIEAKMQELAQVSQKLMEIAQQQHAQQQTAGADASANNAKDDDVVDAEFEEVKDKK

As a reminder, the Kd is the free concentration of one partner at which half of the binding sites on the other are occupied at equilibrium, for simple one-to-one binding. As for `Cc1cccc(N2C(=O)CC(=O)NC2=O)c1`, the Kd is > 4 mM (inactive).

Take `COc1cc(C(C)=O)cc(OC)c1O`: the Kd is > 4 mM (inactive).

For `O=C(O)CC(O)c1nc2ccccc2[nH]1` (configuration not stated), the Kd is > 4 mM (inactive).

On to `Nc1cc(=O)[nH]c(SCC(=O)Nc2nccs2)n1`, for which the Kd was > 4 mM (inactive).

Regarding `COc1cc(O)c(C(C)=O)c(OC)c1`, the Kd is > 4 mM (inactive).

Turning to `Cc1ccc2c(c1)CC[C@H]1CC(=O)CC[C@]21C`, the Kd is > 4 mM (inactive).

On to `NCC1COc2ccccc2O1` (configuration not stated), for which the Kd is > 4 mM (inactive).

Turning to `Cc1nnc(NCCO)[nH]c1=O`, the Kd is > 4 mM (inactive).

For `COc1cnn(-c2ccccc2)c(=O)c1N(C)C`, the Kd was > 4 mM (inactive).

In the case of `Nc1ccc(-n2cccn2)cc1`, the Kd is > 4 mM (inactive).

Consider `Cc1noc(C)c1C(=O)N1CCc2ccccc2C1`, for which the Kd is > 4 mM (inactive).

`N[C@@H](Cc1ccc(O)c(O)c1)C(=O)O`: the Kd is > 4 mM (inactive).

In the case of `CCN(CC)S(=O)(=O)c1cccc2nsnc12`, the Kd was > 4 mM (inactive).

With `CN1CCN(CC(O)c2ccccc2)CC1` (configuration not stated), the Kd is > 4 mM (inactive).

On to `Cn1nnc2cc(C(=O)NC3CCCCC3)ccc21`, for which the Kd was > 4 mM (inactive).

Take `NC(=O)Cn1nc2c3c(cccc3c1=O)-c1ccccc1-2`: the Kd was > 4 mM (inactive).

Turning to `CCOC(=O)c1[nH]cnc1C(=O)OC(C)C`, the Kd was > 4 mM (inactive).

`CC(=O)N1CCn2c3c(c(=O)c4cc(C)ccc42)CCC31` (configuration not stated): the Kd is > 4 mM (inactive).

`CNC(=O)c1cc2cccc(OC)c2oc1=O`: the Kd is > 4 mM (inactive).

With `OCCN1CCN(C(=S)c2ccc(Cl)cc2)CC1`, the Kd is > 4 mM (inactive).

Consider `COC(=O)C1=C(C)N(Cc2ccco2)C(=O)C1`, for which the Kd was > 4 mM (inactive).

As for `N#Cc1cnn2c(C(F)(F)F)cc(C(F)(F)F)nc12`, the Kd is > 4 mM (inactive).

`O=c1[nH]nnc2sc3c(c12)CCCC3`: the Kd was > 4 mM (inactive).

Take `Nc1cccc(CC(=S)N2CCOCC2)c1`: the Kd was > 4 mM (inactive).

For `CCOC(=O)c1cnc2n(c1=O)CCS2`, the Kd is > 4 mM (inactive).

Take `CC(=O)N1CCc2cc(NC(=O)c3ccc(C)cc3)ccc21`: the Kd is > 4 mM (inactive).

In the case of `Cc1occc1C(=O)Nc1nccs1`, the Kd is > 4 mM (inactive).

For `O=C(NC1=NCCS1)c1csc2ccccc12`, the Kd was > 4 mM (inactive).

As for `CC(C)(C)C(=O)Nc1ncc(C(F)(F)F)cc1Cl`, the Kd was > 4 mM (inactive).

As for `O=C1CS/C(=N/N=C2CCCC2)N1`, the Kd is > 4 mM (inactive).

For the compound `CC(=O)N=c1cccc(NC(C)=O)n1O`, the Kd is > 4 mM (inactive).

In the case of `Nc1ccc(-n2cncn2)cc1`, the Kd is > 4 mM (inactive).

Consider `O=CN1CCN(C2CC(=O)N(c3ccccc3)C2=O)CC1` (configuration not stated), for which the Kd is > 4 mM (inactive).

For `O=C1NC(=O)C(=Cc2cccs2)C(=O)N1`, the Kd is > 4 mM (inactive).

As for `CCOc1ccc(C)cc1S(=O)(=O)n1ccc(C)n1`, the Kd is > 4 mM (inactive).

As for `COC(=O)[C@@H]1OC(=O)C2OC23[C@@]1(C)CCC1[C@]2(C)C(C[C@H](O)[C@]13C)C(C)(C)[C@H](OC(C)=O)C[C@@H]2OC(C)=O` (some centres not stated), the Kd is > 4 mM (inactive).

As to `O=C(NS(=O)(=O)c1ccccc1)c1ccccc1F`, the Kd was > 4 mM (inactive).

Regarding `CC(=O)Nc1ccc(-c2nc(C)c(C(C)=O)n2O)cc1`, the Kd was > 4 mM (inactive).

Take `Cc1nc2ccccc2c2c1C(=O)N(C)C2=O`: the Kd is > 4 mM (inactive).

Turning to `OCC1CCCC1O` (configuration not stated), the Kd was > 4 mM (inactive).

For the compound `C[C@@H]1CC[C@@]2(OC1)O[C@H]1CC3C4CC[C@H]5C[C@@H](O)CC[C@]5(C)C4CC[C@]3(C)[C@H]1[C@@H]2C` (some centres not stated), the Kd is > 4 mM (inactive).

As for `COC(=O)c1cc(C)on1`, the Kd is > 4 mM (inactive).

`Cc1c(/C=N\n2cnnc2)c2ccccc2n1C`: the Kd was > 4 mM (inactive).

For `Cc1occc1C(=O)N1CCN(S(C)(=O)=O)CC1`, the Kd was > 4 mM (inactive).

Turning to `Nc1nnc(SCc2ccccc2Cl)s1`, the Kd is > 4 mM (inactive).

As to `O=C(/C=C/c1ccccc1)c1ccc(O[C@@H]2O[C@H](CO)[C@@H](O)[C@H](O)[C@H]2O)cc1O`, the Kd is > 4 mM (inactive).

For the compound `CCOc1ccc2ccccc2c1C(=O)N1CCOCC1`, the Kd is > 4 mM (inactive).

Consider `CN1C(=O)/C(=C\c2ccc[nH]2)SC1=S`, for which the Kd is > 4 mM (inactive).

For `C/C=C/C(=O)Nc1ccc(NC(C)=O)cc1`, the Kd is > 4 mM (inactive).

Turning to `NC1CS(=O)(=O)CC1O` (configuration not stated), the Kd was > 4 mM (inactive).

`CNc1nnc(CSc2nc(C)cc(C)n2)s1`: the Kd was > 4 mM (inactive).

As for `Cc1cc(C(=O)NC(C)c2ccncc2)no1` (configuration not stated), the Kd is > 4 mM (inactive).

As for `Nc1c(C(=O)O)sc2ncccc12`, the Kd was > 4 mM (inactive).

With `S=C(c1ccc2c(c1)OCO2)N1CCCC1`, the Kd was > 4 mM (inactive).

`COC(=O)c1cccs1`: the Kd is > 4 mM (inactive).

Take `NC1=NC(=O)/C(=C/c2cccc([N+](=O)[O-])c2)S1`: the Kd was > 4 mM (inactive).

Consider `Cc1[nH]c2ccccc2c1CN(C)C`, for which the Kd was > 4 mM (inactive).

Turning to `Cc1ccc(C)c(S(=O)(=O)NCc2cccnc2)c1`, the Kd is > 4 mM (inactive).

For `O=C(O)c1ccc(CN2CCOCC2)cc1`, the Kd was > 4 mM (inactive).

For the compound `CC1(C)C[C@@H]2C(=O)CC[C@H]3O[C@]3(C)CC[C@H]21`, the Kd is > 4 mM (inactive).

On to `NC(=O)C1CCCN1S(=O)(=O)c1ccc(F)cc1` (configuration not stated), for which the Kd was > 4 mM (inactive).

With `CNc1nc(SC)nc(N2CCOCC2)n1`, the Kd is > 4 mM (inactive).

As for `O=C(O)C1CN(Cc2ccccc2)CCO1` (configuration not stated), the Kd is > 4 mM (inactive).

Take `COc1ccc2c(c1)OC/C(=C/c1ccc(O)c(O)c1)C2=O`: the Kd was > 4 mM (inactive).

Turning to `CC(=O)Nc1ccncc1NC(C)=O`, the Kd is > 4 mM (inactive).

For the compound `CC(=O)c1ccc(NC(=S)N2CCC(O)CC2)cc1`, the Kd is > 4 mM (inactive).

Consider `COc1cccc(NC(=O)c2nc3ncccn3n2)c1`, for which the Kd was > 4 mM (inactive).

Turning to `Cc1noc(-c2ccccc2)c1CO`, the Kd was > 4 mM (inactive).

As to `Cc1ccc(-n2ncc(C#N)c2/N=C/N(C)C)cc1`, the Kd was > 4 mM (inactive).

`Cc1sc2nc(-c3ccco3)oc(=O)c2c1C`: the Kd was > 4 mM (inactive).

In the case of `Nc1ccc(CN2CCS(=O)(=O)CC2)cc1`, the Kd is > 4 mM (inactive).

With `COc1nc(N2CCOCC2)nc(N)c1[N+](=O)[O-]`, the Kd is > 4 mM (inactive).

Take `CC1(C)Cn2c(nnc2-c2ccccc2)S1`: the Kd was > 4 mM (inactive).

As to `CC(=O)Nc1ccc(C)cc1NC(C)=O`, the Kd was > 4 mM (inactive).

Consider `Cc1cc(C(=O)Nc2ccccn2)no1`, for which the Kd is > 4 mM (inactive).

On to `O=C1CCNc2cc3ccccc3cc21`, for which the Kd was > 4 mM (inactive).

Regarding `Cc1ccc(O)c(NC(=O)c2ccco2)c1`, the Kd was > 4 mM (inactive).

On to `O=C1C[C@@H](c2ccccc2)Oc2cc(O)cc(O)c21`, for which the Kd was > 4 mM (inactive).

On to `COc1ccccc1NC(=O)NC(N)=O`, for which the Kd is > 4 mM (inactive).

With `CC(C)NC(=O)c1cc(=O)n(C)c(=O)n1C`, the Kd is > 4 mM (inactive).

In the case of `O=C(NC1=NCCS1)c1ccc2snnc2c1`, the Kd is > 4 mM (inactive).

Take `CCN1CCc2c(sc(N)c2C(N)=O)C1`: the Kd was > 4 mM (inactive).

In the case of `CC(C)NC(=S)N1CCN(S(C)(=O)=O)CC1`, the Kd is > 4 mM (inactive).

As for `O=C(c1ccccc1-c1ccccc1)N1CCOCC1`, the Kd was > 4 mM (inactive).

Regarding `CC(=O)n1c(N)nc2ccccc21`, the Kd is > 4 mM (inactive).

Consider `C=C(C)C1(O)OC(=O)C=C1OC` (configuration not stated), for which the Kd was > 4 mM (inactive).

Regarding `CC(=O)Nc1ccc(S(=O)(=O)N2CCN=C2C)cc1`, the Kd is > 4 mM (inactive).

Take `c1ccc2c(c1)CN1CCCC1=N2`: the Kd was > 4 mM (inactive).

As to `O=C(CSc1ncnc2ccccc12)NCCCO`, the Kd was > 4 mM (inactive).

Regarding `c1coc(CNc2ncnc3nc[nH]c23)c1`, the Kd was > 4 mM (inactive).

In the case of `Cc1ccc2c(c1)CCCN2C(=O)c1ccncc1`, the Kd is > 4 mM (inactive).

Regarding `Cn1c(C(=O)O)ccc1S(N)(=O)=O`, the Kd was > 4 mM (inactive).

On to `COc1ccc([C@@H]2CC(=O)c3c(O)cc(O)cc3O2)cc1O`, for which the Kd was > 4 mM (inactive).

Take `Cn1cnc2c1c(=O)[nH]c(=O)n2C`: the Kd was > 4 mM (inactive).

In the case of `O=C(O)CSc1nc2ccccc2c(=O)[nH]1`, the Kd is > 4 mM (inactive).

In the case of `Cc1cc(O)c(C)c(O)c1C(=O)O`, the Kd is > 4 mM (inactive).

On to `O=C1C=C(Nc2ccc(O)cc2)c2ccccc2C1=O`, for which the Kd was > 4 mM (inactive).

With `COc1cccc(-c2csc(NC(C)=O)n2)c1`, the Kd is > 4 mM (inactive).

Turning to `CC(=O)Nc1cc(S(=O)(=O)N(C)C)ccc1Cl`, the Kd is > 4 mM (inactive).

Regarding `OCC1CCCN2CCCCC12` (configuration not stated), the Kd was > 4 mM (inactive).

For `C=CCN1CC[C@]23c4c5ccc(O)c4OC2C(=O)CC[C@@]3(O)[C@H]1C5` (some centres not stated), the Kd was > 4 mM (inactive).

Turning to `NC(=O)CN=Cc1c(O)[nH]c2ccccc12`, the Kd is > 4 mM (inactive).

Take `Cc1ccc(-c2nnc3sc(-c4ccncc4)nn23)cc1`: the Kd is > 4 mM (inactive).

As for `COc1ccccc1-c1c(C)nn2c(C)c(C(C)=O)cnc12`, the Kd is > 4 mM (inactive).

On to `NC(=O)C1CCN(C(=O)c2ccco2)CC1`, for which the Kd is > 4 mM (inactive).

Take `Cc1nc2ccccc2c(=O)n1NC(=O)C1CCCCC1`: the Kd was > 4 mM (inactive).

In the case of `O=C(O)C1CCCCN1Cc1ccccc1` (configuration not stated), the Kd was > 4 mM (inactive).
